Data on 6 compounds can be found in US10772902B2, “Use of floridoside or isethionic acid to potentiate antimicrobial activity of antibiotics” (OCELAND BIOLOGICALS LIMITED, priority 2016, dated 2020).

In brackets after ≈: the same amount, converted by molar mass.

Assay [1] concerns S. Enteritidis. The experiment in a line: Antimicrobial effect of seaweed pure compounds, broth inoculation method (log CFU/mL). It counts as cell-based, Salmonella Enteritidis. To be noted: 15 μg/mL of compound, no antibiotic; for colony count of S. Enteritidis, log CFU: control log CFU 6.5. On the procedure:
These pure compounds were tested in vitro against S. Enteritidis using the broth inoculation method of Example 2, but without the tetracycline or streptomycin. Fifteen (15) μg/mL of each compound was added to TSA broth and inoculated with S. Enteritidis.

The test system of assay [2] is S. Enteritidis. Nature of the assay: Minimum inhibitory concentrations (MIC25, MIC50) of antibiotics, broth inoculation method. It counts as cell-based. The settings on record: Salmonella enterica, 37° C., 16-18 h, inoculum 1×10^8 cells/mL. The procedure: Nalidixic acid resistant strain of S. Enteritidis was provided by Laboratory for Foodborne Zoonoses, Public Health Agency of Canada, Guelph, Ontario. Half strength tryptic soy agar (TSA) medium (Difco) supplemented with nalidixic acid at a concentration of 32 μg/mL was used for bacterial growth. Tetracycline and Streptomycin were obtained from Sigma Aldrich (Oakville, Ontario, Canada). Stock solutions of antibiotics and seaweed extract were prepared and stored at −20° C. Other chemicals and media were purchased from Difco Laboratories, Baltimore, Md., USA. Red seaweeds (Chondrus crispus, and Sarcodiotheca gaudichaudii) were provided by Acadian Seaplants Limited, Nova Scotia, Canada.
The susceptibility of S. Enteritidis to tetracycline and streptomycin was tested by broth inoculation method. The testing of MICs (MIC25 and MIC50) was performed in triplicates with an inoculum of 1×10^8 cells/mL. […] MATLAB R2010a (curve fitting tool) was used to determine minimum inhibitory concentrations (MIC) of the antibiotics.

The subject of assay [3] is S. Enteritidis. Nature of the assay: Combined effect of seaweed extract and antibiotics, liquid culture inhibition test (CFU). It counts as cell-based, Salmonella Enteritidis. The procedure:
Seaweed water extracts (SWE) were prepared by grinding sun dried seaweeds to fine powder using a coffee grinder, and adding 5 grams of algal powder to 20 mL distilled water (DW). The resulting slurry was incubated at 50° C. for 3 hours under shaking condition at 140 rpm using an orbital shaker (New Brunswick Scientific, Enfield, Conn., US). The slurry was then centrifuged at 10,000 g for 15 min. The supernatant was recovered and the residual pellet was re-extracted three times using the same procedure. The resulting supernatants were pooled and freeze dried (Thermo Fisher Scientific Inc., US). Dilutions of SWE were prepared by dissolving 0.2, 0.4, 0.8, 1 and 2 g of soluble freeze dried extract in 1 mL distilled water. These dilutions were used as working concentration in all the experiments. The combined effect of the C. crispus (CC) extract or the S. gaudichaudii (SG) extract, with tetracycline or streptomycin (at MIC25 or MIC50), was evaluated in vitro by liquid culture inhibition test. To 10 mL of tryptic soy broth, seaweed extract (SWE) and 100 μL Salmonella Enteritidis (OD600=0.1, 1×10^8 cells/mL) were added. The final concentrations of seaweed extracts in 10 mL with tryptic soy broth were 200, 400, or 800 μg/mL. Culture tubes were incubated at 37° C. for 24 hrs. The growth of S. Enteritidis was determined by plating the serially diluted culture on TSA plates to enumerate the colony forming units (CFU).

For `NC(=O)NCCC[C@H](N)C(=O)O` [citrulline], the “CFU of S. Enteritidis compared to control” value in the assay with S. Enteritidis [1] is “no statistically significant difference”.

For the compound `OCC(CO)O[C@H]1O[C@H](CO)[C@H](O)[C@H](O)[C@H]1O` [Floridoside, 2-O-α-D-galactopyranosylglycerol], in the assay with S. Enteritidis [1], the “colony count of S. Enteritidis, log CFU” value worked out at 6.21 log CFU.

Consider `O=S(=O)(O)CCO` [isethionic acid, Isethionic acid], for which, in the assay with S. Enteritidis [1], the “colony count of S. Enteritidis, log CFU” value is 6.33 log CFU.

The MIC is the smallest concentration in the dilution series that meets the test's criterion for growth inhibition. Broadly, the MIC50 is an inhibitory concentration at the 50% level, which refers to growth in some studies and to a panel of isolates in others. As for `[H]/N=C(/N)N[C@H]1[C@H](O)[C@@H](O)[C@H](O[C@@H]2O[C@@H](C)[C@](O)(C=O)[C@H]2O[C@@H]2O[C@@H](CO)[C@H](O)[C@@H](O)[C@@H]2NC)[C@@H](N/C(N)=N\[H])[C@@H]1O` [Streptomycin], in the assay on S. Enteritidis [2], 1 µg/mL (≈ 1.72 µM) was the least that counted as inhibitory (MIC) and the MIC50 was 1.63 µg/mL (≈ 2.8 µM).

For `CN(C)[C@@H]1C(O)=C(C(N)=O)C(=O)[C@@]2(O)C(O)=C3C(=O)c4c(O)cccc4[C@@](C)(O)[C@H]3C[C@@H]12` [tetracycline], the MIC with S. Enteritidis [2] is not above 7.9 µg/mL. In addition, the MIC50 against S. Enteritidis [2] was not above 4 µg/mL. In addition, the “growth of S. Enteritidis, log CFU” value in the assay on S. Enteritidis [3] (MIC controls (tetracycline without SG extract)) came to 5.5 log CFU; in the assay on S. Enteritidis [3] (tetracycline alone at MIC25, 24 hrs) it was 6.1 log CFU; in the assay on S. Enteritidis [3] (tetracycline alone at MIC50, 24 hrs) it was 5.5 log CFU.

Regarding `NCCS(=O)(=O)O` [taurine], the “CFU of S. Enteritidis compared to control” value with S. Enteritidis [1] is recorded as “no statistically significant difference”.
